Data from patent US20230348852A1, “METHODS AND COMPOSITIONS FOR OCULAR CELL THERAPY” (NOVARTIS AG, priority 2020, published 2023).
“Also recorded” adds a separate entry of the source.

What was measured:
YAP = assay: Intracellular YAP distribution by immunohistochemistry in LSCs exposed to LATS inhibitors; format: cell-based, human; conditions: 10 micromolar, 24 hours, compared with DMSO control
Description: Cells were cultured under these conditions for 24 hours at 37° C. in 5% CO2.
To measure the effect of the LATS inhibitors on the downstream target YAP, intracellular YAP distribution was analyzed by immunohistochemistry. Cell cultures were fixed with 4% PFA for 20 minutes, permeabilized and blocked in a blocking solution of 0.3% Triton X-100 (Sigma-Aldrich) and 3% donkey serum in PBS for 30 minutes. Cells were then labeled with primary antibody in the blocking solution for 12 hours at 4° C. Primary antibody used was anti-YAP from Santa Cruz Biotechnology. Samples were washed in PBS three times and donkey-raised secondary antibody Alexa Fluor 488 (Molecular Probes) at 1:500 dilution were applied for 30 minutes at room temperature. […] Fluorescence was observed using a Zeiss LSM 880 confocal microscope.

phospho-YAP (ser127) = assay: YAP phosphorylation by Western blot in LSCs exposed to LATS inhibitors; format: cell-based, human; conditions: 10 micromolar, 1 hour, DMSO as negative control
Description: The medium was then replaced by fresh limbal epithelium cell culture medium (DMEM F12 supplemented with 10% human serum and 1.3 mM calcium chloride) supplemented with LATS inhibitor compound example no. […] Cells were cultured under these conditions for 1 hour at 37° C. in 5% CO2.
To measure the effect of the LATS inhibitors on the downstream target YAP, the YAP phosphorylation levels were measured by western blot as follows. The cell pellets were obtained by trypsin dissociation and centrifugation and washed with PBS. The pellets were lysed with 30 microlitres of RIPA lysis buffer containing protease inhibitor cocktail (Life Technologies) for 30 minutes, with vortexing every 10 minutes. The cell debris were then pelleted at 4° C. for 15 minutes at 14 k rpm and the protein lysate was collected. Protein concentration was quantified using a micro BCA kit (Pierce). Fifteen micrograms of total protein was loaded in each well of 4-20% TGX gels (BioRad) and Western blotting was performed according to the manufacturer’s instructions. […] Membranes were stained with HRP-conjugated secondary antibodies, rinsed and imaged using a ChemiDoc system (Biorad) according to the manufacturer’s instructions.

human limbal stem cells [1] = assay: Human limbal stem cell population expansion and immunohistochemical observation of p63alpha phenotype; format: cell-based; conditions: for colony formation and p63alpha expression: 10 micromolar, 6 days after isolation without passaging, DMSO as negative control
Description: Cells were first cultured at 37° C. in 5% CO2 for 6 days after isolation without passaging (FIGS. 2A, 2B and 2C).
To evaluate the ability of the compounds to enable LSC expansion after two passages, LSCs were passaged and cultured for two weeks in the presence of compound example 3 to enable expansion (FIG. 2D). Limbal stem cells (LSCs) were passaged by treating cultures with Accutase for 10 minutes at 37° C., rinsing the cell suspension by centrifugation and plating cells in fresh LSC culture medium supplemented with LATS inhibitor compound example 3.
In order to observe that the expanded cell population expressed p63alpha, this was measured by immunohistochemistry as follows. Cell cultures were fixed with 4% PFA for 20 minutes, permeabilized and blocked in a blocking solution of 0.3% Triton X-100 (Sigma-Aldrich) and 3% donkey serum in PBS for 30 minutes. Cells were then labeled with primary antibody in the blocking solution for 12 hours at 4° C. Primary antibody used was p63alpha from Cell Signalling. Samples were washed in PBS three times and donkey-raised secondary antibody Alexa Fluor 488 (Molecular Probes) at 1:500 dilution were applied for 30 minutes at room temperature. Cells were counter-stained with a human nuclear antigen antibody (Millipore) at a 1:500 dilution in order to label all cells in the culture and confirm their human identity. […] Fluorescence was observed using a Zeiss LSM 880 confocal microscope.

human limbal stem cells [2] = assay: Human limbal stem cell population expansion and measurement (expansion factor, p63alpha-positive cells); format: cell-based; conditions: 10 micromolar in XVIVO15 medium, two passages; for Expansion factor: ratio of expanded population to seeded cells; for Percentage of p63a-positive cells: share of Sytox Orange-positive nuclei expressing p63alpha
Description: Cells were cultured at 37° C. in 5% CO2.
For each compound, two sets of cultures were generated. A first set of cultures was fixed in 4% PFA for 20 minutes at room temperature after cells isolated from the cornea had attached to the cell culture dish (typically 24 h after cell plating). A second set of cultures was fixed in 4% PFA for 20 minutes at room temperature after being cultured for two passages. Cells were passaged when they reached 90-100% confluence.
In order to observe that the expanded cell population expressed p63alpha, this was measured by immunohistochemistry as follows. The fixed cell cultures were permeabilized and blocked in a blocking solution of 0.3% Triton X-100 (Sigma-Aldrich) and 3% donkey serum in PBS for 30 minutes. Cells were then labeled with primary antibody in the blocking solution for 12 hours at 4° C. Primary antibody used was p63alpha from Cell Signalling. Samples were washed in PBS three times and donkey-raised secondary antibody Alexa Fluor 488 (Molecular Probes) at 1:500 dilution were applied for 30 minutes at room temperature. Cell nuclei were then labeled in a solution of 0.5 micromolar of Sytox Orange (ThermoFisher) in PBS for 5 minutes at room temperature.
To evaluate the percentage of p63alpha-positive cells, the number of cells labeled by the anti-p63alpha antibody was counted and the total number of cells was determined by counting the number of nuclei stained by Sytox Orange. The proportion of p63alpha-positive cells was then determined by calculating the percentage of Sytox-orange-positive nuclei that also expressed p63alpha.
To evaluate cell expansion ratios, nuclei were counted using a Zeiss LSM 880 confocal microscope. The expansion factor was then determined by calculating the ratio of the expanded population of cells to population of seeded cells.

[3] = system: human lymphoblastoid TK6 cells; assay: In vitro TK6 micronucleus assay; format: cell-based; conditions: for Conclusion TK6 MNT screen result: 30+0 hour -S-9 up to limit of cytotoxicity, 3+27 hours +S-9 up to 1 mM
Description: An in vitro TK6 Micronucleus Assay was performed to evaluate the clastogenic and aneugenic potential of a LATS inhibitor by its effects on the frequency of micronuclei in cultured human lymphoblastoid TK6 cells treated for 30 hours with no recovery in the absence of an Aroclor-induced rat liver metabolizing system (S-9) (30+0 hour -S-9) and for 3 hours in the presence of S-9 with 27 hours of recovery (3+27 hours +S-9).
TK6 cells were cultured in HEPES-buffered RPMI 1640 medium with GlutaMAXTM-1 including 10% (v/v) heat inactivated foetal calf serum, 100 Units/mL/100 µg/mL penicillin / streptomycin. Liver S-9 mix from male rats induced with Aroclor 1254 was added as a 10% S-9 mix to achieve a final concentration of 1% in the test system. […] Standard vehicle used was DMSO.
For valid data, the test item was considered to induce clastogenic and/or aneugenic events if: • A statistically significant increase in the frequency of micronucleated mononucleate (MNMON) cells at one or more concentrations was observed • An incidence of MNMON cells at such a concentration exceeded the normal range in both replicate cultures was observed • A concentration-related increase in the proportion of MNMON cells was observed (positive trend test).
The test item was considered positive in this assay if all of the above criteria were met. The test item was considered negative in this assay if none of the above criteria were met.

[4] = system: Salmonella typhimurium (TA98 and TA100); assay: Bacterial reverse mutation assay (6-well Ames screen); format: cell-based; conditions: TA98 and TA100, absence or presence of rat liver S-9 mix, maximum concentration 500 µg/well
Description: A Bacterial Reverse Mutation Assay (“Ames Test”) was performed to evaluate the mutagenic potential of a LATS inhibitor by its effects on one or more histidine-requiring strains of Salmonella typhimurium (TA98 and TA100.) in the absence and presence of a liver metabolizing system.
The 6-well plate Ames test is a miniaturized screening version of the original test using smaller volumes and test item amounts, see e.g. P.A. Escobar et al. (2013), Mut. Res. 752, 99-118. The highest concentration of 500 µg/well used in this 6-well Ames screen corresponds to about the top concentration of […] in the standard Ames test. Liver S-9 mix from male rats induced with Aroclor 1254 was added as a 5% S-9 mix to the test system. […] Standard vehicle used was DMSO.
The test article was regarded positive in this assay if this criterion is met, otherwise it was regarded as negative.

[5] = +S-9, 3+27 hours, 337.0 µg/mL (approximately 1 mM)
[6] = +S-9, any concentration up to 337.0 µg/mL
[7] = -S-9, any concentration up to 40.00 µg/mL

Compound	YAP immunostaining in the nucleus of LSCs (YAP)	YAP phosphorylation levels in human LSCs (Western blot) (phospho-YAP (ser127))	YAP phosphorylation levels in human LSCs (Western blot) (phospho-YAP (ser127); listed as ex. 3)	colony formation and p63alpha expression (human limbal stem cells [1])	cell population expansion and p63alpha expression after passaging (human limbal stem cells [1]; passaged and cultured for two weeks in the presence of the compound)	Expansion factor (human limbal stem cells [2])	Percentage of p63a-positive cells (human limbal stem cells [2])	YAP phosphorylation levels in human LSCs (Western blot) (phospho-YAP (ser127); listed as ex. 4)	Conclusion TK6 MNT screen result ([3]; listed as dimethyl(3-methyl-3-{[2-(pyridin-4-yl)pyrido[3,4-d]pyrimid in-4-yl]amino}butyl)a)	Conclusion TK6 MNT screen result ([3]; listed as dimethyl(3-methyl-3-{[2-(pyridin-4-yl)pyrido[3,4-d]pyrimidin-4-yl]amino}butyl)am)	cytotoxicity [3, 5]	increases in micronucleated mononucleate (MNMON) cells [3, 6]	cytotoxicity ([3]; -S-9, 30 hours, 40.00 µg/mL)	increases in micronucleated mononucleate (MNMON) cells [3, 7]	AMES screen result [4]	Conclusion TK6 MNT screen result [3]
CC(C)(O)CC(C)(C)Nc1nc(-c2ccncc2)nc2cnccc12 [Example 3, 2,4-dimethyl-4-{[2-(pyridin-4-yl)pyrido[3,4-d]pyrimidin-4-yl]amino}pentan-2-ol]	stronger in the nucleus	reduction in YAP phosphorylation levels	induce YAP dephosphorylation in LSCs within one hour	formed colonies and expressed p63alpha	enabled cell population expansion and the formation of confluent cultures expressing p63alpha	2029	92%									
Cc1n[nH]cc1-c1nc(NC2(C)CC2)c2ccncc2n1 [Example 4, 2-(3-methyl-1H-pyrazol-4-yl)-N-(1-methylcyclopropyl)pyrido[3,4-d]pyrimidin-4-amine]	stronger in the nucleus	reduction in YAP phosphorylation levels		formed colonies and expressed p63alpha		1205	89%	induce YAP dephosphorylation in LSCs within one hour								
CN(C)CCC(C)(C)Nc1nc(-c2ccncc2)nc2cnccc12 [Example 5, Dimethyl(3-methyl-3-{[2-(pyridin-4-yl)pyrido[3,4-d]pyrimidin-4-yl]amino}butyl)amine]									“negative”	did not induce micronuclei	39%	No statistically significant (p≤0.05) increases	58%	No statistically significant (p≤0.05) increases	did not show evidence of a mutagenic potential; also recorded: “negative”	
Cc1n[nH]cc1-c1nc(NC(C)(C)CCN(C)C)c2ccncc2n1 [Example 6, N^1,N^1,3-trimethyl-N^3-(2-(3-methyl-1H-pyrazol-4-yl)pyrido[3,4-d]pyrimidin-4-yl)butane-1,3-diamine]											33%	No statistically significant (p≤0.05) increases	57%	No statistically significant (p≤0.05) increases	did not show evidence of a mutagenic potential; also recorded: “negative”	did not induce micronuclei; also recorded: “negative”
